Experimental data from ChEMBL document CHEMBL1142000, “(R)-2-(4-Phenylbutyl)dihydrobenzofuran derivatives as melatoninergic agents” (Bioorg Med Chem Lett, 2005).

Columns and labels:
[1] = molecular target: Melatonin receptor type 1A (Homo sapiens, UniProt P48039); experiment: Binding affinity against Melatonin receptor type 1A stably expressed in NIH3T3 cells using 2-[125I]iodomelatonin; type: cell-based
[2] = molecular target: T1, Melatonin receptor type 1B (Homo sapiens, UniProt P49286); experiment: Binding affinity against Melatonin receptor type 1B stably expressed in NIH3T3 cells using 2-[125I]iodomelatonin; type: cell-based
T1 sequence (P49286 whole entry): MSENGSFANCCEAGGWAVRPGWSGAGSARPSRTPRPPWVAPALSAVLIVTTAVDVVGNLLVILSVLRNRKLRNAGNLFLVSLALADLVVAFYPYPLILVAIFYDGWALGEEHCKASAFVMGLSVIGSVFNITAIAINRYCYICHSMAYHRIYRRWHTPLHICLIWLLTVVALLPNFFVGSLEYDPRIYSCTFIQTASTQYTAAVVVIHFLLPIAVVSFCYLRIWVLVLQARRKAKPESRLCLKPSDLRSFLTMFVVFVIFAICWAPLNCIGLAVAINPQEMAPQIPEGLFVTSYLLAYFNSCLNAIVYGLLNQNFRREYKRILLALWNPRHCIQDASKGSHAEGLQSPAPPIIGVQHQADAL

Melatonin receptor type 1A, sequence (P48039 whole entry): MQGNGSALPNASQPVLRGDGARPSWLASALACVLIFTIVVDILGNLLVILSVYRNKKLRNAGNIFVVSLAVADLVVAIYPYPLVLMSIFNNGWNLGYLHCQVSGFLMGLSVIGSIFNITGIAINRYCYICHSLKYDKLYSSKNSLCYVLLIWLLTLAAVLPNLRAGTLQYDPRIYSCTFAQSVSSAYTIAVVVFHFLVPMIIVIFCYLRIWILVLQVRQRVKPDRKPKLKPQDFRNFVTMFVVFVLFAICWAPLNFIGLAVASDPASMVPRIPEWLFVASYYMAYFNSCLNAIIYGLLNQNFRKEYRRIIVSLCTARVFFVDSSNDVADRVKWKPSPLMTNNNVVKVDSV

Compound	Ki [1]	Ki [2]
CCCC(=O)NC[C@@H]1C[C@H]1c1cccc2c1C[C@@H](CCCCc1ccccc1)O2	2 nM	2 nM
CC(C)C(=O)NCCCc1cccc2c1C[C@@H](CCCCc1ccccc1)O2	4 nM	40 nM
O=C(NC[C@@H]1C[C@H]1c1cccc2c1C[C@@H](CCCCc1ccccc1)O2)C1CC1	1 nM	5 nM
CC(=O)NCCCc1cccc2c1C[C@@H](CCCCc1ccccc1)O2	4 nM	8 nM
CCNC(=O)NC[C@@H]1C[C@H]1c1c(Cl)ccc2c1C[C@@H](CCCCc1ccccc1)O2	60 nM	90 nM
CCNC(=O)NC[C@@H]1C[C@H]1c1cccc2c1C[C@@H](CCCCc1ccccc1)O2	9 nM	40 nM
CC(=O)NC[C@@H]1C[C@H]1c1cccc2c1C[C@@H](CCCCc1ccccc1)O2	1 nM	2 nM
CCCC(=O)NCCCc1cccc2c1C[C@@H](CCCCc1ccccc1)O2	2 nM	30 nM
CC(C)C(=O)NC[C@@H]1C[C@H]1c1cccc2c1C[C@@H](CCCCc1ccccc1)O2	6 nM	90 nM
O=C(NCCCc1cccc2c1C[C@@H](CCCCc1ccccc1)O2)C1CC1	2 nM	30 nM
CCNC(=O)NCCCc1cccc2c1C[C@@H](CCCCc1ccccc1)O2	9 nM	40 nM
CCC(=O)NCCCc1cccc2c1C[C@@H](CCCCc1ccccc1)O2	1 nM	20 nM
CCC(=O)NC[C@@H]1C[C@H]1c1cccc2c1C[C@@H](CCCCc1ccccc1)O2	1 nM	2 nM
